In patent US10869904B2, “Pharmaceutical composition for preventing or treating respiratory disease comprising extract of Justicia procumbens L” (DONG WHA PHARM. CO., LTD., priority 2016, dated 2020):

Experiments:
Format in all cases: cell-based, Balb/c mice
[1] = system: splenocytes; assay: Inhibition of Concanavalin A-induced splenocyte proliferation (CCK8); conditions: for inhibition of splenocyte proliferation (in words): Tables 4 to 6
Experimental: (§1) The isolated splenocytes were diluted in RPMI medium (containing 10% fetal bovine serum (FBS) and antibiotics (100 U/mL penicillin and 100 μg/mL streptomycin)) at a concentration of 5×10^6 cells/nit, and the cell dilution was dispended in a 24-well plate in an amount of 500 μl/well and in a 96-well plate in an amount of 100 μl/well. The plates were incubated in a 5% CO2 incubator at 37° C. for 48 hours. […] The medium of the 24-well plate was used to measure the degree of secretion of Th2 inflammatory cytokines (IL4 and IL5), and the 96-well plate was used to measure the degree of cell proliferation. First, in order to measure Th2 cytokines, the medium in the 24-well plate was collected and centrifuged at 800×g for 5 minutes, and the supernatant was collected. 100 μl of the supernatant per well was used in IL4 or IL5 enzyme-linked immunosorbent assay (ELISA, Komabiotech Inc.) to measure the degree of secretion of these cytokines. In order to measure the degree of cell proliferation, […] of CCK8 (cell counting kit 8, Donjindo) solution was added to each well of the 96-well plate, and after 4 hours, the absorbance value was measured. The degree of inhibition of spleen cell proliferation by each drug and the degree of inhibition of Th2 cytokine secretion by each drug were calculated using Equation 2 below. For drug synergistic effects, a linear equation was constructed using the concentrations of drugs administered alone as x-coordinates and using drug concentration-dependent inhibition as y-coordinates. Using this linear equation, the concentrations of drugs administered alone, which correspond to inhibition achieved when administered in combination, were calculated, and combination index (CI) was calculated using Equation 3 below. A CI value of less than 1 indicates a synergistic effect, a CI value of 1 indicates an additive effect, and a CI value of more than 1 indicates an antagonistic effect (Liang Zhao et. al., Clinical Cancer Research, 10, 7994-8004, 2004). […]

[2] = system: IL4; assay: Inhibition of IL4 secretion by Concanavalin A-treated splenocytes (ELISA); conditions: for inhibition of IL4 secretion (in words): text on Tables 7 and 8
Experimental: as §1

[3] = system: IL5; assay: Inhibition of IL5 secretion by Concanavalin A-treated splenocytes (ELISA); conditions: for inhibition of IL5 secretion (in words): text on Tables 7 and 8
Experimental: as §1

[4] = Table 8, Concentration (mM) 0.25
[5] = Table 8, Concentration (mM) 0.5

Compound | Inhibition of splenocyte proliferation (%, n = 3, Mean ± SD) ([1]; Table 5, 0.5 μM) | Inhibition of splenocyte proliferation (%, n = 3, Mean ± SD) ([1]; Table 5, 5 μM) | Inhibition of splenocyte proliferation (%, n = 3, Mean ± SD) ([1]; Table 6, 1 μM) | Inhibition of splenocyte proliferation (%, n = 3, Mean ± SD) ([1]; Table 6, 5 μM) | inhibition of splenocyte proliferation (in words) [1] | Inhibition of IL4 secretion (%, n = 2, Mean ± SD) ([2]; Table 7, 1 μM) | Inhibition of IL4 secretion (%, n = 2, Mean ± SD) ([2]; Table 7, 5 μM) | Inhibition of IL4 secretion (%, n = 2, Mean ± SD) ([2]; Table 8, Concentration (mM) 1) | Inhibition of IL4 secretion (%, n = 2, Mean ± SD) ([2]; Table 8, Concentration (mM) 5) | inhibition of IL4 secretion (in words) [2] | Inhibition of IL5 secretion (%, n = 2, Mean ± SD) ([3]; Table 7, 1 μM) | Inhibition of IL5 secretion (%, n = 2, Mean ± SD) ([3]; Table 7, 5 μM) | Inhibition of IL5 secretion (%, n = 2, Mean ± SD) ([3]; Table 8, Concentration (mM) 1) | Inhibition of IL5 secretion (%, n = 2, Mean ± SD) ([3]; Table 8, Concentration (mM) 5) | inhibition of IL5 secretion (in words) [3] | other results
COc1cc2c(OC)c3c(c(-c4ccc5c(c4)OCO5)c2cc1OC)C(=O)OC3 [Justicidin A, justicidin A] | −2.7 ± 1.84% | 85.0 ± 2.43% | 43.4 ± 1.63% | 99.0 ± 2.35% | high inhibitory activities | −10.6 ± 0.08% | 54.7 ± 0.02% | 71.6 ± 0.02% | 86.4 ± 0.04% | inhibited the secretion of IL4 and IL5 | 25.4 ± 0.01% | 56.7 ± 0.00% | 11.7 ± 0.27% | 25.7 ± 0.08% | inhibited the secretion of IL4 and IL5 | Inhibition of splenocyte proliferation (%, n = 3, Mean ± SD) ([1]; Table 5, 1 μM): 9.4 ± 4.36%; Inhibition of splenocyte proliferation (%, n = 3, Mean ± SD) ([1]; Table 5, 2.5 μM): 56.4 ± 18.80%
phyllamyricin C | 0.9 ± 2.86% | 18.8 ± 2.82% | 19.0 ± 18.44% | 25.0 ± 11.37% | exhibited the effect of inhibiting splenocyte proliferation | 9.8 ± 0.05% | 14.4 ± 0.01% | 11.8 ± 0.01% | 51.5 ± 0.11% | inhibited the secretion of IL4 and IL5 | 22.9 ± 0.01% | 67.9 ± 0.01% | 0.5 ± 0.05% | 31.6 ± 0.08% | inhibited the secretion of IL4 and IL5 | –
COc1cc2cc3c(c(-c4ccc5c(c4)OCO5)c2cc1OC)C(=O)OC3 [Justicidin B, justicidin B] | 64.3 ± 0.50% | – | – | – | high inhibitory activities | 78.2 ± 0.01% | – | – | – | inhibited the secretion of IL4 and IL5 | 84.4 ± 0.00% | – | – | – | inhibited the secretion of IL4 and IL5 | Inhibition of splenocyte proliferation (%, n = 3, Mean ± SD) ([1]; Table 5, 0.25 μM): 14.2 ± 1.43%; Inhibition of splenocyte proliferation (%, n = 3, Mean ± SD) ([1]; Table 6, 0.25 μM): 72.5 ± 2.66%; Inhibition of splenocyte proliferation (%, n = 3, Mean ± SD) ([1]; Table 6, 0.5 μM): 90.8 ± 0.94%; Inhibition of IL4 secretion (%, n = 2, Mean ± SD) ([2]; Table 7, 0.5 μM): 35.9 ± 0.01%; Inhibition of IL4 secretion (%, n = 2, Mean ± SD) [2, 4]: 81.6 ± 0.02%; Inhibition of IL4 secretion (%, n = 2, Mean ± SD) [2, 5]: 87.6 ± 0.02%; Inhibition of IL5 secretion (%, n = 2, Mean ± SD) ([3]; Table 7, 0.5 μM): 55.8 ± 0.01%; Inhibition of IL5 secretion (%, n = 2, Mean ± SD) [3, 4]: 41.9 ± 0.04%; Inhibition of IL5 secretion (%, n = 2, Mean ± SD) [3, 5]: 66.8 ± 0.10%
